{"source": "patent US20250206732A1", "about": "“COMPOUNDS AND METHODS FOR THE TARGETED DEGRADATION OF KRAS” (Arvinas Operations, Inc., priority 2022, published 2025)", "target": "T1, AsPC-1 HiBiT-KRASG12D (Homo sapiens, UniProt P01116, G12D)", "T1 construct": "insert the HiBiT tag onto the N-terminus of one or more of the endogenous KRAS alleles; endogenous in cells; host or cells: AsPC-1 (ATCC CRL-1682), CRISPR-Cas9 knock-in clone, one tagged allele", "T1 sequence (P01116 1-188 isoform P01116-2 G12D)": "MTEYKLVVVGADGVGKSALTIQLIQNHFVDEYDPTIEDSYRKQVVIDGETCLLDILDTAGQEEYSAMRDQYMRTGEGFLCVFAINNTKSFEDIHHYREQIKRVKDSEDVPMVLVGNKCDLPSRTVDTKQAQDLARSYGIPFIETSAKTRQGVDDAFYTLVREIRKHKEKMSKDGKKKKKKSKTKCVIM", "experiment": "HiBiT degradation assay (G12D), AsPC-1 HiBiT-KRASG12D cells", "assay_type": "cell-based", "settings": "24 hours treatment; for Dmax: ASPC1, AsPC-1 HiBiT-KRASG12D cells, maximum degradation observed; for DC50: AsPC-1 HiBiT-KRASG12D cells, HiBiT luminescence", "how_it_was_run": "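Luminescence read-out of HiBiT-tagged endogenous KRASG12D in AsPC-1 cells after 24 h compound exposure at 37° C; lytic Nano-Glo HiBiT detection, 45 min at room temperature. A parallel alamar blue read (4 h) checked viability, normalized to DMSO-only controls.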"}
{"smiles": "CCc1cccc2cc(O)cc(-c3ncc4c(N5CC6CCC(C5)N6)nc(OCCN5CCC(F)(CN6CCN(c7cc([C@H](C(=O)N8C[C@H](O)C[C@H]8C(=O)N[C@@H](C)c8ccc(-c9scnc9C)cc8)C(C)C)on7)C[C@H]6C)CC5)nc4c3F)c12", "note": "[Compound 200, (2S,4R)-1-[(2R)-2-{3-[(3R)-4-[(1-{2-[(4-{3,8-diazabicyclo[3.2.1]octan-3-yl}-7-(8-ethyl-3-hydroxynaphthalen-1-yl)-8-fluoropyrido[4,3-d]pyrimidin-2-yl)oxy]ethyl}-4-fluoropiperidin-4-yl)methyl]-3-methylpiperazin-1-yl]-1,2-oxazol-5-yl}-3-methylbutanoyl]-4-hydroxy-N-[(1S)-1-[4-(4-methyl-1,3-thiazol-5-yl)phenyl]ethyl]pyrrolidine-2-carboxamide]", "values": [{"measurement": "Dmax", "result": "60 to 80", "unit": "%"}, {"measurement": "DC50", "result": "< 600", "unit": "nM"}]}
{"smiles": "CCc1cccc2cc(O)cc(-c3ncc4c(N5CC6CCC(C5)N6)nc(OCCN5CCC(CN6CCN(c7cc([C@@H](C(=O)N8C[C@H](O)C[C@H]8C(=O)N[C@@H](C)c8ccc(-c9ccnn9C)cc8)C(C)C)on7)CC6)CC5)nc4c3F)c12", "note": "[Compound 201, (2S,4R)-1-[(2S)-2-(3-{4-[(1-{2-[(4-{3,8-diazabicyclo[3.2.1]octan-3-yl}-7-(8-ethyl-3-hydroxynaphthalen-1-yl)-8-fluoropyrido[4,3-d]pyrimidin-2-yl)oxy]ethyl}piperidin-4-yl)methyl]piperazin-1-yl}-1,2-oxazol-5-yl)-3-methylbutanoyl]-4-hydroxy-N-[(1S)-1-[4-(1-methyl-1H-pyrazol-5-yl)phenyl]ethyl]pyrrolidine-2-carboxamide]", "values": [{"measurement": "DC50", "result": "> 3000", "unit": "nM"}]}
{"smiles": "CCc1cccc2cc(O)cc(-c3ncc4c(N5CC6CCC(C5)N6)nc(OCCN5CCC(CC6CCN(c7cc([C@H](C(=O)N8C[C@H](O)C[C@H]8C(=O)N[C@@H](C)c8ccc(-c9ccnn9C)cc8)C(C)C)on7)CC6)CC5)nc4c3F)c12", "note": "[Compound 202, (2S,4R)-1-[(2R)-2-(3-{4-[(1-{2-[(4-{3,8-diazabicyclo[3.2.1]octan-3-yl}-7-(8-ethyl-3-hydroxynaphthalen-1-yl)-8-fluoropyrido[4,3-d]pyrimidin-2-yl)oxy]ethyl}piperidin-4-yl)methyl]piperidin-1-yl}-1,2-oxazol-5-yl)-3-methylbutanoyl]-4-hydroxy-N-[(1S)-1-[4-(1-methyl-1H-pyrazol-5-yl)phenyl]ethyl]pyrrolidine-2-carboxamide]", "values": [{"measurement": "Dmax", "result": "80 to 100", "unit": "%"}, {"measurement": "DC50", "result": "< 600", "unit": "nM"}]}
{"smiles": "CCc1cccc2cc(O)cc(-c3ncc4c(N5CC6CCC(C5)N6)nc(OCCN5CCC(F)(CN6CCN(c7cc([C@@H](C(=O)N8C[C@H](O)C[C@H]8C(=O)N[C@@H](C)c8ccc(-c9scnc9C)cc8)C(C)C)on7)[C@@H](C)C6)CC5)nc4c3F)c12", "note": "[Compound 203, (2S,4R)-1-[(2S)-2-{3-[(2S)-4-[(1-{2-[(4-{3,8-diazabicyclo[3.2.1]octan-3-yl}-7-(8-ethyl-3-hydroxynaphthalen-1-yl)-8-fluoropyrido[4,3-d]pyrimidin-2-yl)oxy]ethyl}-4-fluoropiperidin-4-yl)methyl]-2-methylpiperazin-1-yl]-1,2-oxazol-5-yl}-3-methylbutanoyl]-4-hydroxy-N-[(1S)-1-[4-(4-methyl-1,3-thiazol-5-yl)phenyl]ethyl]pyrrolidine-2-carboxamide]", "values": [{"measurement": "Dmax", "result": "20 to 60", "unit": "%"}, {"measurement": "DC50", "result": "1000 to 3000", "unit": "nM"}]}
{"smiles": "CCc1cccc2cc(O)cc(-c3ncc4c(N5CC6CCC(C5)N6)nc(OCCN5CCC(O)(CC6CCN(c7cc([C@H](C(=O)N8C[C@H](O)C[C@H]8C(=O)N[C@@H](C)c8ccc(-c9scnc9C)cc8)C(C)C)on7)CC6)CC5)nc4c3F)c12", "note": "[Compound 204, (2S,4R)-1-[(2R)-2-(3-{4-[(1-{2-[(4-{3,8-diazabicyclo[3.2.1]octan-3-yl}-7-(8-ethyl-3-hydroxynaphthalen-1-yl)-8-fluoropyrido[4,3-d]pyrimidin-2-yl)oxy]ethyl}-4-hydroxypiperidin-4-yl)methyl]piperidin-1-yl}-1,2-oxazol-5-yl)-3-methylbutanoyl]-4-hydroxy-N-[(1S)-1-[4-(4-methyl-1,3-thiazol-5-yl)phenyl]ethyl]pyrrolidine-2-carboxamide]", "values": [{"measurement": "Dmax", "result": "80 to 100", "unit": "%"}, {"measurement": "DC50", "result": "< 600", "unit": "nM"}]}
{"smiles": "CCc1cccc2cc(O)cc(-c3ncc4c(N5CC6CCC(C5)N6)nc(OCCN5CCC(O)(CC6CCN(c7cc([C@@H](C(=O)N8C[C@H](O)C[C@H]8C(=O)N[C@@H](C)c8ccc(-c9scnc9C)cc8)C(C)C)on7)CC6)CC5)nc4c3F)c12", "note": "[Compound 205, (2S,4R)-1-[(2S)-2-(3-{4-[(1-{2-[(4-{3,8-diazabicyclo[3.2.1]octan-3-yl}-7-(8-ethyl-3-hydroxynaphthalen-1-yl)-8-fluoropyrido[4,3-d]pyrimidin-2-yl)oxy]ethyl}-4-hydroxypiperidin-4-yl)methyl]piperidin-1-yl}-1,2-oxazol-5-yl)-3-methylbutanoyl]-4-hydroxy-N-[(1S)-1-[4-(4-methyl-1,3-thiazol-5-yl)phenyl]ethyl]pyrrolidine-2-carboxamide]", "values": [{"measurement": "Dmax", "result": "20 to 60", "unit": "%"}, {"measurement": "DC50", "result": "1000 to 3000", "unit": "nM"}]}
{"smiles": "C#Cc1c(F)ccc2cc(O)cc(-c3ncc4c(N5CC6CCC(C5)N6)nc(OCCN5CCC(CN6CCN(c7cc([C@H](C(=O)N8C[C@H](O)C[C@H]8C(=O)N[C@@H](C)c8ccc(-c9scnc9C)cc8)C(C)C)on7)CC6)CC5)nc4c3F)c12", "note": "[Compound 206, (2S,4R)-1-[(2R)-2-(3-{4-[(1-{2-[(4-{3,8-diazabicyclo[3.2.1]octan-3-yl}-7-(8-ethynyl-7-fluoro-3-hydroxynaphthalen-1-yl)-8-fluoropyrido[4,3-d]pyrimidin-2-yl)oxy]ethyl}piperidin-4-yl)methyl]piperazin-1-yl}-1,2-oxazol-5-yl)-3-methylbutanoyl]-4-hydroxy-N-[(1S)-1-[4-(4-methyl-1,3-thiazol-5-yl)phenyl]ethyl]pyrrolidine-2-carboxamide]", "values": [{"measurement": "Dmax", "result": "80 to 100", "unit": "%"}, {"measurement": "DC50", "result": "< 600", "unit": "nM"}]}
{"smiles": "CCc1cccc2cc(O)cc(-c3ncc4c(N5CCCCCC5)nc(OC[C@]56CCCN5[C@H](COc5cc([C@@H](C(=O)N7C[C@H](O)C[C@H]7C(=O)N[C@@H](C)c7ccc(-c8scnc8C)cc7)C(C)C)on5)CC6)nc4c3F)c12", "note": "[Compound 207, (2S,4R)-1-[(2S)-2-(3-{[(3S,7aR)-7a-({[4-(azepan-1-yl)-7-(8-ethyl-3-hydroxynaphthalen-1-yl)-8-fluoropyrido[4,3-d]pyrimidin-2-yl]oxy}methyl)-hexahydro-1H-pyrrolizin-3-yl]methoxy}-1,2-oxazol-5-yl)-3-methylbutanoyl]-4-hydroxy-N-[(1S)-1-[4-(4-methyl-1,3-thiazol-5-yl)phenyl]ethyl]pyrrolidine-2-carboxamide]", "values": [{"measurement": "DC50", "result": "> 3000", "unit": "nM"}]}
{"smiles": "CCc1cccc2cc(O)cc(-c3ncc4c(N5CCCCCC5)nc(OC[C@]56CCCN5[C@H](COc5cc([C@H](C(=O)N7C[C@H](O)C[C@H]7C(=O)N[C@@H](C)c7ccc(-c8scnc8C)cc7)C(C)C)on5)CC6)nc4c3F)c12", "note": "[Compound 208, (2S,4R)-1-[(2R)-2-(3-{[(3S,7aR)-7a-({[4-(azepan-1-yl)-7-(8-ethyl-3-hydroxynaphthalen-1-yl)-8-fluoropyrido[4,3-d]pyrimidin-2-yl]oxy}methyl)-hexahydro-1H-pyrrolizin-3-yl]methoxy}-1,2-oxazol-5-yl)-3-methylbutanoyl]-4-hydroxy-N-[(1S)-1-[4-(4-methyl-1,3-thiazol-5-yl)phenyl]ethyl]pyrrolidine-2-carboxamide]", "values": [{"measurement": "Dmax", "result": "80 to 100", "unit": "%"}, {"measurement": "DC50", "result": "< 600", "unit": "nM"}]}
{"smiles": "CCc1cccc2cc(O)cc(-c3ncc4c(N5CC6CCC(C5)N6)nc(OCCN5CCC(F)(CN6CCN(c7cc([C@H](C(=O)N8C[C@H](O)C[C@H]8C(=O)N[C@@H](C)c8ccc(-c9scnc9C)cc8)C(C)C)on7)[C@@H](C)C6)CC5)nc4c3F)c12", "note": "[Compound 209, (2S,4R)-1-[(2R)-2-{3-[(2S)-4-[(1-{2-[(4-{3,8-diazabicyclo[3.2.1]octan-3-yl}-7-(8-ethyl-3-hydroxynaphthalen-1-yl)-8-fluoropyrido[4,3-d]pyrimidin-2-yl)oxy]ethyl}-4-fluoropiperidin-4-yl)methyl]-2-methylpiperazin-1-yl]-1,2-oxazol-5-yl}-3-methylbutanoyl]-4-hydroxy-N-[(1S)-1-[4-(4-methyl-1,3-thiazol-5-yl)phenyl]ethyl]pyrrolidine-2-carboxamide]", "values": [{"measurement": "Dmax", "result": "80 to 100", "unit": "%"}, {"measurement": "DC50", "result": "< 600", "unit": "nM"}]}
{"smiles": "CCc1cccc2cc(O)cc(-c3ncc4c(N5CC6CCC(C5)N6)nc(OCCN5CCC(CC6CCN(c7cc([C@@H](C(=O)N8C[C@H](O)C[C@H]8C(=O)N[C@@H](C)c8ccc(-c9ccnn9C)cc8)C(C)C)on7)CC6)CC5)nc4c3F)c12", "note": "[Compound 210, (2S,4R)-1-[(2S)-2-(3-{4-[(1-{2-[(4-{3,8-diazabicyclo[3.2.1]octan-3-yl}-7-(8-ethyl-3-hydroxynaphthalen-1-yl)-8-fluoropyrido[4,3-d]pyrimidin-2-yl)oxy]ethyl}piperidin-4-yl)methyl]piperidin-1-yl}-1,2-oxazol-5-yl)-3-methylbutanoyl]-4-hydroxy-N-[(1S)-1-[4-(1-methyl-1H-pyrazol-5-yl)phenyl]ethyl]pyrrolidine-2-carboxamide]", "values": [{"measurement": "Dmax", "result": "20 to 60", "unit": "%"}, {"measurement": "DC50", "result": "600 to 1000", "unit": "nM"}]}
{"smiles": "CCc1cccc2cc(O)cc(-c3ncc4c(N5CC6CCC(C5)N6)nc(OCCN5CCC(CN6CCN(c7cc([C@H](C(=O)N8C[C@H](O)C[C@H]8C(=O)N[C@@H](C)c8ccc(-c9scnc9C)cc8)C(C)C)on7)CC6)CC5)nc4c3F)c12", "note": "[Compound 211, (2S,4R)-1-[(2R)-2-(3-{4-[(1-{2-[(4-{3,8-diazabicyclo[3.2.1]octan-3-yl}-7-(8-ethyl-3-hydroxynaphthalen-1-yl)-8-fluoropyrido[4,3-d]pyrimidin-2-yl)oxy]ethyl}piperidin-4-yl)methyl]piperazin-1-yl}-1,2-oxazol-5-yl)-3-methylbutanoyl]-4-hydroxy-N-[(1S)-1-[4-(4-methyl-1,3-thiazol-5-yl)phenyl]ethyl] pyrrolidine-2-carboxamide]", "values": [{"measurement": "Dmax", "result": "80 to 100", "unit": "%"}, {"measurement": "DC50", "result": "< 600", "unit": "nM"}]}
